US9328163B2, “Post-translationally modified neurotrophin antibodies” (INSTITUT PASTEUR, priority 2006, dated 2016)

Tests used:
motor neurons = test: Purified motor neuron cultures, motor neuron survival by direct counting; format: cell-based, rat; settings: for induction of motor neuron death: BSA 100 ng/mL, FGF-1 or FGF-2 10 ng/mL previously treated with peroxynitrite 1 mM
Experimental: Media and sera were purchased from Gibco-Invitrogen. Motor neuron cultures were prepared from embryonic day 15 (E15) rat spinal cord by a combination of metrizamide gradient centrifugation and immunopanning with a monoclonal antibody directed against rat p 75^NTR (mouse mAb Ig192) as previously described. Motor neurons were plated at a density of 350 cells/cm^2 on 4 well multidishes (Nunclon) precoated with polyornithine-laminin. Cultures were maintained in Neurobasal™ medium supplemented with 2% horse serum, […] L-glutamate, 25 μM 2-mercaptoethanol, 0.5 mM L-glutamine, and 2% B-27 supplement (Gibco-Invitrogen). Motor neuron survival was maintained by the addition of GDNF (1 ng/mL; Sigma) to the culture media. Motor neuron death induced by trophic factor deprivation (NONE, without GDNF) was determined in all experiments as a control, and never was greater than 50%. Treatments with the different reagents were performed 3 hours after motor neuron plating. Motor neuron survival was assessed after 48 hours by direct counting of all cells displaying intact neurites longer than 4-cell bodies in diameter, in a prefixed area of the dish.
(§1) Treatment with antisense oligonucleotides to down-regulate p75^NTR expression was performed as described previously. Briefly, HPLC-purified phosphorothioate antisense and missense oligonucleotides (5 μM; Integrated DNA Technologies) were added to the cell suspension of purified motor neurons and repeatedly pipetted before seeding. The oligonucleotides were present the whole time of culture. To determine the efficiency of uptake, cultures were incubated with p75^NTR antisense oligonucleotides with a 5′ 56-FAM fluorescent label. Cells were transferred to the heated stage (37° C.) of a Zeiss LSM510 confocal microscope with constant 5% CO2. Fluorescence was imaged with a 63× oil immersion objective. Uptake efficiency was >96% in all experiments. Sequences used were: p75^NTR antisense, 5′-ACCTGCCCTCCTCATTGCA-3′ (SEQ ID NO: 5) and p 75^NTR missense, 5′-CTCCCACTCGTCATTCGAC-3′ (SEQ ID NO: 6).

NGF = test: Tyrosine nitration and oligomerization of NGF by peroxynitrite (SDS-PAGE, Western blot anti-nitrotyrosine); format: biochemical, mouse; settings: urate 20 to 1000 μM; peroxynitrite 1 mM
Experimental: Peroxynitrite concentration was determined spectrophotometrically at 302 nm (ε=1,670 M^−1 cm^−1). Diluted stock solutions were freshly prepared in 0.01 M NaOH. The reactions of NGF (Harlan; Indianapolis, USA) with different concentrations of peroxynitrite (0.25 mM to 2 mM) was performed at a protein concentration of 0.2 mg/mL to 1.0 mg/mL obtaining similar results. The reaction was performed in 50 mM sodium phosphate buffer, pH 7.4, containing 20 mM sodium bicarbonate. NGF was subjected to 10 bolus addition of peroxynitrite (1 μL each) to reach the desired final concentration of peroxynitrite. One bolus of peroxynitrite stock solution was rapidly added on the top of the test tube and mixed by vortexing for 3 sec. The procedure was repeated 10 times. To exclude a potential non-specific effect of peroxynitrite treatment because of pH changes or contaminants, control experiments were performed using diluted NaOH or decomposed peroxynitrite (reverse order addition, ROA). Treatment of bovine serum albumin (Sigma), FGF-1 (Sigma) and FGF-2 (R&D Systems) with peroxynitrite was performed as described above at a concentration of 0.2 mg/mL.
SDS-PAGE was performed in 15% polyacrylamide minigels under reducing conditions. Samples were boiled for 5 min in LaemLi buffer before running. Proteins were visualized by Coomassie Blue or Silver staining. […]

purified motor neurons = test: Uptake of fluorescently labelled antisense oligonucleotides (confocal microscopy); format: cell-based, rat; settings: antisense oligonucleotides with 5′ 56-FAM fluorescent label; all experiments
Experimental: as §1

[1] = test system: Dorsal root ganglia explants; test: Neurite outgrowth from dorsal root ganglia explants (GAP-43 immunofluorescence); format: cell-based; settings: 100 ng/mL; 24 hours; E15 rat embryo ganglia
Experimental: Dorsal root ganglia explants from E15 rat embryos (that express both TrkA and p75^NTR) were cultured in Neurobasal media in the absence of trophic factors (NONE) or in the presence of NGF (100 ng/mL), NGF treated with peroxynitrite (100 ng/mL; nitroNGF-P) or NGF treated with tetranitromethane (nitroNGF-TNM). After 24 hours cultures were fixed with 4% paraformaldehyde and processed for immunofluorescence against GAP-43.

[2] = cultures maintained with GDNF (1 ng/mL), no exogenous nitric oxide, 48 h

`COC(=O)[C@@H](N)CCCNC(=N)N[N+](=O)[O-]` [L-NAME] was tested, and the “effect on motor neuron loss induced by peroxynitrite-treated NGF” value (from here on “effect on motor neuron loss induced”) (motor neurons; L-NAME 1 mM, NGF-ONOO^− 100 ng/mL, 48 h) was “prevented”.

In the case of `COC(=O)CC[C@H](NC(=O)[C@H](CC(=O)OC)NC(=O)OCc1ccccc1)C(=O)N[C@H](C(=O)N[C@@H](CC(=O)OC)C(=O)CF)C(C)C` [DEVD-fmk], the “effect on motor neuron loss induced” value (motor neurons; DEVD-fmk 10 μM added every 24 hours, NGF-ONOO^− 100 ng/mL, 48 h) is reported as “blocked”.

`Oc1nc(O)c2nc(O)[nH]c2n1` [urate] was tested, and the “effect on motor neuron loss induced” value (motor neurons; urate 100 nM added to culture, NGF-ONOO^− 100 ng/mL, 48 h) was “did not prevent motor neuron loss”, the “effect on apoptotic activity of peroxynitrite-treated NGF” value (motor neurons; urate 200 μM present during peroxynitrite (1 mM) treatment of NGF, NGF 100 ng/mL, 48 h) was “abolished the apoptotic effect” and the “effect on tyrosine nitration and oligomerization of NGF” value (NGF) was “prevented tyrosine nitration and oligomerization of NGF in a dose dependent manner”.

“peroxynitrite treated-FGF-2: FGF-2 (R&D Systems) treated with peroxynitrite” was tested, and the “induction of motor neuron death” value (motor neurons; 48 h) was “did not induce motor neuron death” and the “induction of motor neuron death” value (motor neurons; 48 h, listed as nitro-FGF-2) was “do not exert any apoptotic effect”.

With “antisense: phosphorothioate p75^NTR antisense, 5′-ACCTGCCCTCCTCATTGCA-3′ (SEQ ID NO: 5) (DNA, all phosphorothioate, methylation of C not given here; further chemistry not fully specified)” the “effect on motor neuron apoptosis induced by native NGF in the presence of nitric oxide” value (motor neurons; oligonucleotides 5 μM, NGF 100 ng/mL plus DETA-NONOate 10 μM, 48 h) was “blocked”, the “effect on apoptosis induced by peroxynitrite-treated NGF” value (motor neurons; oligonucleotides 5 μM, NGF-ONOO^− 100 ng/mL, 48 h) was “completely prevented” and the “effect on loss of motor neurons induced by NGF-ONOO^− or NGF+NO” value (motor neurons; oligonucleotides added at plating, NGF-ONOO^− 100 ng/mL or NGF 100 ng/mL plus DETA-NONOate 10 μM, 48 h) was “completely blocked the loss of motor neurons”. For the same molecule, the uptake efficiency (purified motor neurons) was > 96%.

“peroxynitrite treated-FGF-1: FGF-1 (Sigma) treated with peroxynitrite” was tested, and the “induction of motor neuron death” value (motor neurons; 48 h) was “did not induce motor neuron death” and the “induction of motor neuron death” value (motor neurons; 48 h, listed as nitro-FGF-1) was “do not exert any apoptotic effect”.

For “peroxynitrite treated-BSA: bovine serum albumin (Sigma) treated with peroxynitrite”, the “induction of motor neuron death” value (motor neurons; 48 h) was “did not induce motor neuron death”.

With `O=C(O)c1ccc(/C2=C3\C=CC(=N3)/C(c3ccc(C(=O)O)cc3)=c3/cc/c4[n]3[Mn]([Cl])[n]3c2ccc3/C(c2ccc(C(=O)O)cc2)=C2/C=CC(=N2)\C=4c2ccc(C(=O)O)cc2)cc1` [MnTBAP] the “effect on motor neuron loss induced” value (motor neurons; MnTBAP 100 μM, NGF-ONOO^− 100 ng/mL, 48 h) was “prevented”.

“peroxynitrite-treated NGF: NGF (Harlan) treated with peroxynitrite; nitrated (Tyr52, Trp99), elutes as dimer, tetramer and octamer” was tested, and the “peroxynitrite concentration at which NGF apoptotic activity reaches a plateau” value (motor neurons; NGF 10 ng/mL previously treated with indicated peroxynitrite concentrations, 48 h) was “higher than 0.5 mM”, the motor neuron loss (motor neurons; at 1 pg/mL in the presence of nitric oxide (DETA-NONOate 10 μM), 48 h) was 33% and the “concentration inducing motor neuron death (as low as)” value (motor neurons; cultures maintained with GDNF (1 ng/mL), no exogenous nitric oxide, survival 48 h after treatment) was 1 ng/mL. For the same molecule, the “increase of potency to induce apoptosis of motor neurons” value (motor neurons; in the presence of nitric oxide, versus NGF) was 10,000 fold, the “apoptotic activity relative to unmodified native NGF” value (motor neurons; through p75^NTR) was 10,000 fold and the “concentration significantly inducing motor neuron loss” value (motor neurons; together with nitric oxide (NGF-ONOO^−+NO)) was 1 pg/mL. For the same molecule, the “neurite growth compared to NGF” value [1] was “increased neurite growth”.

B1: NGF-ROA: control NGF treated with decomposed peroxynitrite (reverse order addition) (protein, UniProt P01139 122-241, looked up)
Beta-nerve growth factor: SSTHPVFHMGEFSVCDSVSVWVGDKTTATDIKGKEVTVLAEVNINNSVFRQYFFETKCRASNPVESGCRGIDSKHWNSYCTTTHTFVKALTTDEKQAAWRFIRIDTACVCVLSRKATRRG
modifications: Beta-nerve growth factor treated with decomposed peroxynitrite
In the case of B1, the “effect on motor neuron survival” value (motor neurons; [2]) is reported as “did not affect motor neuron survival” and the “concentration significantly inducing motor neuron loss” value (motor neurons; in the presence of nitric oxide <50 nM from DETA-NONOate (10 μM), 48 h) is reported as “higher than 10 ng/mL”.

B2: TNM-treated NGF: NGF (Harlan) treated with 40-fold molar excess of tetranitromethane; nitrated at Tyr52 and Tyr79 (protein)
chain: SSTHPVFHMGEFSVCDSVSVWVGDKTTATDIKGKEVTVLAEVNINNSVFRQYFFETKCRASNPVESGCRGIDSKHWNSYCTTTHTFVKALTTDEKQAAWRFIRIDTACVCVLSRKATR
With B2 the motor neuron loss (motor neurons; in the absence of nitric oxide, 48 h) was 32% and the “neurite growth compared to NGF” value [1] was “increased neurite growth”.

B3: NGF: nerve growth factor, commercially available murine NGF (Harlan), non-nitrated (protein, listed as Mus musculus)
chain: B2 chain
For B3, the “effect on motor neuron survival” value (motor neurons; [2]) was “not sensitive”.
